The target in one data set is T1, ERK1 (Homo sapiens, UniProt P27361).
T1 construct: purchased Upstate, Millipore Bioscience Division (KinaseProfiler service)
The experiment in a line: Kinase panel screen (KinaseProfiler), ERK1. The class given is biochemical. As for the experimental part: (§1) Compounds of Formulae I and II were examined for activity against a selected panel of kinases using the KinaseProfiler™ enzyme profiling services (Upstate, Millipore Bioscience Division). Percent kinase activity at 10 μM and 1 μM test compound and 10 μM ATP was determined against 40 wild-type recombinant human kinases according to Upstate's standard protocol: ASK1, BTK, CSK, c-RAF, GCK, GSK3β, IKKα, IKKβ, IRAK1, IRAK4, JNK1α1, JNK2α2, JNK3, ERK1, ERK2, MAPKAP-K2, MAPKAP-K3, MEK1, MKK4, MKK6, MKK7β, Mnk2, MSK1, PAK3, PDK1, PRAK, ROCK1, Rsk2, SAPK2a, SAPK2b, SAPK3, SAPK4, SRPK1, SRPK2, Syk, TAK1, TBK1, PI3-Kβ, PI3-Kγ, PI3-Kδ.

The next data set deals with T2, IRAK1 (Homo sapiens, UniProt P51617).
T2 construct: purchased Upstate, Millipore Bioscience Division (KinaseProfiler service)
The data set can be described thus: Kinase panel screen (KinaseProfiler), IRAK1. The class given is biochemical. The following applies: 10 μM ATP. As for the experimental part:
as §1

A further data set concerns the target T3, IRAK4 (Homo sapiens, UniProt Q9NWZ3).
T3 construct: purchased Upstate, Millipore Bioscience Division (KinaseProfiler service)
T3 sequence (Q9NWZ3 1-460): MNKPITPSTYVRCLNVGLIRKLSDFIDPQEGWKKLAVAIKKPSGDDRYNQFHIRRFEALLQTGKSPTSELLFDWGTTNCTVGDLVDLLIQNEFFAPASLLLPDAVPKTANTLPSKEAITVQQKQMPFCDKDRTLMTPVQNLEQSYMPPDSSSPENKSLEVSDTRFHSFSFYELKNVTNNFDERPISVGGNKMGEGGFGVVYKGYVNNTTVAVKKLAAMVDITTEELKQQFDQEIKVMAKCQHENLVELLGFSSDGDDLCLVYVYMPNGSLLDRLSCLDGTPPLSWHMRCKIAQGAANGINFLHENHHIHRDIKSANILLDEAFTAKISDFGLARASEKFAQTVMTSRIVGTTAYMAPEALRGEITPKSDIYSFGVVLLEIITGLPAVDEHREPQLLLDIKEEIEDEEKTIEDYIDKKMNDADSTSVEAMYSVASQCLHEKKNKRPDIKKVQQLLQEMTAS
The data set can be described thus: Kinase panel screen (KinaseProfiler), IRAK4. The class given is biochemical. Particulars: 10 μM ATP. The protocol: as §1

The nature of data set [1]: Compound plasma concentrations in unsensitized mice at 15 min post administration. The class given is in vivo. The following applies: mouse, 15 μmol/kg; mean compound plasma concentration in mice at 15 minutes post oral administration; read-out: Mouse Oral PK.
In the next data set the target is T4, ROCK1 (Homo sapiens, UniProt Q13464).
T4 construct: purchased Upstate/Chemicon 14-601
The data set can be described thus: Rho kinase inhibition assay (IMAP fluorescence polarization), ROCK1.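 Also: kinase reaction run 60 min at room temperature, then phosphorylated substrate captured on IMAP beads for 30 min, with fluorescence polarization read in mP.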 The class given is biochemical.

Another data set addresses T5, ERK2 (Homo sapiens, UniProt P28482).
T5 construct: purchased Upstate, Millipore Bioscience Division (KinaseProfiler service)
The data set can be described thus: Kinase panel screen (KinaseProfiler), ERK2. In kind it is biochemical. The protocol: as §1

A further data set has as its target T6, GCK (Homo sapiens, UniProt Q12851).
T6 construct: purchased Upstate, Millipore Bioscience Division (KinaseProfiler service)
T6 sequence (Q12851 1-820): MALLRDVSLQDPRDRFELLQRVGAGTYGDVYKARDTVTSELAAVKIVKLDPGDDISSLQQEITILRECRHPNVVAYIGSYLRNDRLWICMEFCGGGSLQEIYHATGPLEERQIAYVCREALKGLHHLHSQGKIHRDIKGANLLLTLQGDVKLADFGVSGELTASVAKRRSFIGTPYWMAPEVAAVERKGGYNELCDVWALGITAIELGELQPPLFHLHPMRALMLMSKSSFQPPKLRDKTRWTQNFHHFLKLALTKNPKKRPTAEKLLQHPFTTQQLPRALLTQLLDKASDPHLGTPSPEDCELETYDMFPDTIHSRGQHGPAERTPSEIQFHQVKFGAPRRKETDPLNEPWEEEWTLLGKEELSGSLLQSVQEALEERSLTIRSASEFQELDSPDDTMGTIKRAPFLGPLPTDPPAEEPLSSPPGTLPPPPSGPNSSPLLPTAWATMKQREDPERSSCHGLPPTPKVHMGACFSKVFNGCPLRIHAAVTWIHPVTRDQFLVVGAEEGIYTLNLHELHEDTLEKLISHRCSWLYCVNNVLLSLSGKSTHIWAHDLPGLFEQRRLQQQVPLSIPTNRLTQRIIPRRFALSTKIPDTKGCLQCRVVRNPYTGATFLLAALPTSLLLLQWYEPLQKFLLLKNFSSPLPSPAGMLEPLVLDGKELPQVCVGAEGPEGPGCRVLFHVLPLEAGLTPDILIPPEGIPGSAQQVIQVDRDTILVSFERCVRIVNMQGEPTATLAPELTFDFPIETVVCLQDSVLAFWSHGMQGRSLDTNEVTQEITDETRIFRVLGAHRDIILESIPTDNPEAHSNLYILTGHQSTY
The experiment in a line: Kinase panel screen (KinaseProfiler), GCK. The class given is biochemical. The protocol: as §1

In a further data set the target is T7, ROCK2 (Homo sapiens, UniProt O75116).
T7 construct: purchased Upstate/Chemicon 14-451
The data set can be described thus: Rho kinase inhibition assay (IMAP fluorescence polarization), ROCK2.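 Also: kinase reaction started with 10 µM ATP and run 60 min at room temperature, then phosphorylated substrate captured on IMAP beads for 30 min and fluorescence polarization read in mP.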 In kind it is biochemical. On the technique in general: Polarisation of emitted light reports the rotation of a fluorescent probe.

For data set [2], the system named is A-10 rat thoracic aorta cells. The data set can be described thus: PDGF-stimulated smooth muscle cell proliferation assay (BrdU incorporation).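 Also: cells kept in serum-free medium, BrdU allowed to incorporate for 24 h, then incorporated label detected fluorometrically with an anti-BrdU antibody.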 In kind it is cell-based. Particulars: A-10 cells, 10 ng/mL PDGF, BrdU incorporation, percent of total challenge-stimulated proliferation.
A further data set concerns the target T8, Akt3 human enzyme (Homo sapiens, UniProt Q9Y243).
T8 construct: purchased Upstate Chemicon 14-502
The experiment in a line: Akt3 inhibition assay (IMAP FP).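 Also: kinase reaction run 60 min at room temperature after 30 µM ATP start, phosphorylated substrate captured on IMAP beads and read as fluorescence polarization (mP).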 The class given is biochemical.

A further data set concerns the target T9, p70S6K human enzyme (Homo sapiens, UniProt P23443, T412E).
T9 construct: purchased Upstate Chemicon 14-486
The experiment in a line: p70S6K inhibition assay (IMAP FP).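 Also: kinase reaction run at room temperature, phosphorylated substrate captured on IMAP beads and read as fluorescence polarization in mP, IC50 then converted to Ki.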 In kind it is biochemical.

Where two headings read alike, the source gives them in different places.

The source of these data is patent publication US20090325959A1 (priority 2008, published 2009).

T1 sequence (P27361 whole entry): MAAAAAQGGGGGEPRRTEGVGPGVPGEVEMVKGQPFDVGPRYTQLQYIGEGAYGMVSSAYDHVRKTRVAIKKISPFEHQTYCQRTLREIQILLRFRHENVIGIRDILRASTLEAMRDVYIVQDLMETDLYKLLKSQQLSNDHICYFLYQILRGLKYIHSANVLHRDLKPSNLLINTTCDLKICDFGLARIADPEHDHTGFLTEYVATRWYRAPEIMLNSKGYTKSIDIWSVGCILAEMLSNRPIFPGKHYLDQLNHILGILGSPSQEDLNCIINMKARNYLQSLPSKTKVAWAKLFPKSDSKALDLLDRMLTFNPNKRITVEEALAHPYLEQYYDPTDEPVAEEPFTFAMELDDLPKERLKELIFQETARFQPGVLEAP
T5 sequence (P28482 whole entry): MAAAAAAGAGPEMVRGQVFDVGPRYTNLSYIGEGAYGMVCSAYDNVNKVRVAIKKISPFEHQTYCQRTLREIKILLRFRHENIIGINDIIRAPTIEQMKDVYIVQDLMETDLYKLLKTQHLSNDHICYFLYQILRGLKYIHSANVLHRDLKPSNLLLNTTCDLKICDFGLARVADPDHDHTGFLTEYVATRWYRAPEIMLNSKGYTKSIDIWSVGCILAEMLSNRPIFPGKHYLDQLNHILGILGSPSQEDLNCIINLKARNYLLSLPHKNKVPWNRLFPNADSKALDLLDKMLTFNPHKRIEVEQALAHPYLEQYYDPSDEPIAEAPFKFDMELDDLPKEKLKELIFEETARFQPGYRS
T9 sequence (P23443 1-421 T412E limits assumed): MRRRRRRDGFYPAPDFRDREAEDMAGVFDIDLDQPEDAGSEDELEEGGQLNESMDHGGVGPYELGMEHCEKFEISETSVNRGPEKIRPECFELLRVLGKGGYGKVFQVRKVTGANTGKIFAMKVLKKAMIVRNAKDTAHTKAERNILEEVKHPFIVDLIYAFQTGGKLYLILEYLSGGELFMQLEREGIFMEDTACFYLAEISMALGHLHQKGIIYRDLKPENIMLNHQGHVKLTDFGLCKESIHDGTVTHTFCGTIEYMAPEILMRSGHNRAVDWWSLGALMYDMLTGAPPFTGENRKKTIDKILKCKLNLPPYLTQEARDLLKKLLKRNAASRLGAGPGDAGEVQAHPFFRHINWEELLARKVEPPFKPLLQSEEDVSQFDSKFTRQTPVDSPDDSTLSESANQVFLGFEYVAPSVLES
T4 sequence (Q13464 17-535 limits assumed): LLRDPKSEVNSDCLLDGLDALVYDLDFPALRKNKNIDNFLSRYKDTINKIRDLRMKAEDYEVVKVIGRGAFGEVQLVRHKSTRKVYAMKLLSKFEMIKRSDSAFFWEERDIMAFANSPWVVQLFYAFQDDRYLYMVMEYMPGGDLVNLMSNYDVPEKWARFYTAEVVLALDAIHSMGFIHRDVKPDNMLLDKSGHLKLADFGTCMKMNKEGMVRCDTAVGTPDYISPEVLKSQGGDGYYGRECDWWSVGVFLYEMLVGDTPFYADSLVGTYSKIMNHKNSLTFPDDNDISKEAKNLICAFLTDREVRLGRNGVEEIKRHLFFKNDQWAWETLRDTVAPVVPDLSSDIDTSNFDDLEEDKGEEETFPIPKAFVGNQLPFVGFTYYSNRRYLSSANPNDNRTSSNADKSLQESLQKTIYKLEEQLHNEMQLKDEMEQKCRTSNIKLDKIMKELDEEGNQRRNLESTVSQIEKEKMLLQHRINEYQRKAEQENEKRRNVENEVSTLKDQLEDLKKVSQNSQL
T8 sequence (Q9Y243 whole entry): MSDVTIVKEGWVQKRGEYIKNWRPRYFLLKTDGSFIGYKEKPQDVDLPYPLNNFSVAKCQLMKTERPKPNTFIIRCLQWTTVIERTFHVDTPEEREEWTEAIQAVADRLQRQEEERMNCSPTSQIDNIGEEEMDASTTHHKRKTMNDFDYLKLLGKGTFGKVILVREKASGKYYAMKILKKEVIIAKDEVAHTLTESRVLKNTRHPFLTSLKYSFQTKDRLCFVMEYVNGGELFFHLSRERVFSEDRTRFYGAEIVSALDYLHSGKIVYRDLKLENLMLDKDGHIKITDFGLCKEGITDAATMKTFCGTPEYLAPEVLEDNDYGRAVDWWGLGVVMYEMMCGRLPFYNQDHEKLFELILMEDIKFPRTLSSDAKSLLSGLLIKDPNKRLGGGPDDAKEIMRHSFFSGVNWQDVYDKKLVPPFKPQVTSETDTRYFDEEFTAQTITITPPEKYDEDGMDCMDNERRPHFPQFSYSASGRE
T7 sequence (O75116 11-552 limits assumed): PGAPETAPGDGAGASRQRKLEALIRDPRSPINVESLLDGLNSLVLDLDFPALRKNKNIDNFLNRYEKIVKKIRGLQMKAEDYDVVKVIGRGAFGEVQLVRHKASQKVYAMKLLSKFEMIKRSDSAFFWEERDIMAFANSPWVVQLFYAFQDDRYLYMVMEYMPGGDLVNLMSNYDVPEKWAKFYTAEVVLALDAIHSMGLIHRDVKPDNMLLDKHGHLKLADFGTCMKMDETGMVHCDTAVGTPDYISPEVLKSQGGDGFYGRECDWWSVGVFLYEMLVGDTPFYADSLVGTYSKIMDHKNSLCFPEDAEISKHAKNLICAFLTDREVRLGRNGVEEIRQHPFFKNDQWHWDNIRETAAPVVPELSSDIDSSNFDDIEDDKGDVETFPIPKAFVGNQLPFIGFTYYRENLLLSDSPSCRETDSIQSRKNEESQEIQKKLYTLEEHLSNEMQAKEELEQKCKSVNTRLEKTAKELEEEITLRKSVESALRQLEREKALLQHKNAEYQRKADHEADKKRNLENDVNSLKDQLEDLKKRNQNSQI
T2 sequence (P51617 whole entry): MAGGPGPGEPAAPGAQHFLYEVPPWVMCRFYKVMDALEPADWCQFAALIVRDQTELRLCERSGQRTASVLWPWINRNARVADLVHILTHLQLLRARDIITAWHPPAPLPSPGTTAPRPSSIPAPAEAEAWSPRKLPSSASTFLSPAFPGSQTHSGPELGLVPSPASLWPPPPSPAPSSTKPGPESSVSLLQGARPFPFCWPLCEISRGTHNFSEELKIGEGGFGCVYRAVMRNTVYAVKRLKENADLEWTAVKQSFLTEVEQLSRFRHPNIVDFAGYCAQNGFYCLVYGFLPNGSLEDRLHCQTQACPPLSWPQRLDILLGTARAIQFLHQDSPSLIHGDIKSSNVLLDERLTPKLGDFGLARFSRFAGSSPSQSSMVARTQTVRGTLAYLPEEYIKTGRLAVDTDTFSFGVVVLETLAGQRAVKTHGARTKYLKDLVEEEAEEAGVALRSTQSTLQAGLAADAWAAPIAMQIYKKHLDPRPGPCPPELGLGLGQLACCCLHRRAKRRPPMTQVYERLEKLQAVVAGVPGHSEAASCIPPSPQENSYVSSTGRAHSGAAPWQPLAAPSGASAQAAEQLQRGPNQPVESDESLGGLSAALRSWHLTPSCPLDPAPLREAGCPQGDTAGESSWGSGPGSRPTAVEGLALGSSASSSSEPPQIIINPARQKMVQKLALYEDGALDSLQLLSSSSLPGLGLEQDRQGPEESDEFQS
Procedure for Akt3 human enzyme: Inhibition of Akt3 and p70S6K activity was determined using the IMAP™ FP Progressive Binding Kit (Molecular Devices product number R8127). […] Following the pre-incubation, 30 μM ATP was added to initiate the reaction. After 60 minutes at RT, Molecular Devices IMAP™ binding solution was added to bind phosphorylated substrate. After 30 minutes of incubation in the presence of the IMAP™ beads the fluorescence polarization was read and the ratio was reported as mP. IC50 results were calculated using the Prism software from Graphpad. The Ki values were determined according to the following formula: Ki=IC50/(1+([ATP Challenge]/EC50 ATP)).
Procedure for ROCK1: (§2) Following the pre-incubation, 10 μM ATP was added to initiate the reaction. After 60 minutes at room temperature, Molecular Devices IMAP™ binding solution was added to bind phosphorylated substrate. After 30 minutes of incubation in the presence of the IMAP™ beads, the fluorescence polarization was read and the ratio was reported as mP. IC50 values for compounds and EC50 values for ATP were calculated using the Prism software from Graphpad.
Procedure for ROCK2: as §2

Turning to `NC(=O)Cn1ccc2cc(CN3CC[C@@H](Nc4cccc5cnccc45)C3)ccc21` [Compound 2.059, (R)-2-(5-((3-(isoquinolin-5-ylamino)pyrrolidin-1-yl)methyl)-1H-indol-1-yl)acetamide], the activity at 1 µM at ERK1 (1 μM test compound, 10 μM ATP, read-out: ERK1 Percent inhibition, 1 μM) worked out at 37%; at IRAK1 (1 μM test compound, read-out: IRAK1 Percent inhibition, 1 μM) it was 87%; on IRAK4 (1 μM test compound, read-out: IRAK4 Percent inhibition, 1 μM), 63%. For the same compound, the inhibition at 1 µM at ERK1 (1 μM, read-out: ERK1 inhibited) was around 50%; on ERK2 (1 μM, read-out: ERK2 inhibited), around 50%. The activity at 10 µM worked out at 4% on ERK1 (10 μM test compound, 10 μM ATP, read-out: ERK1 Percent inhibition, 10 μM); 30% on IRAK1 (10 μM test compound, read-out: IRAK1 Percent inhibition, 10 μM); 22% at IRAK4 (10 μM test compound, read-out: IRAK4 Percent inhibition, 10 μM); 34% on GCK (10 μM test compound, 10 μM ATP, read-out: GCK Percent inhibition, 10 μM). Moreover, the concentration at 15 min in [1] came to 0.09 µM. Besides, the inhibition constant Ki was found to be 0.0039 µM at ROCK1 (Avg, 10 μM ATP); 0.0039 µM on ROCK1 (average Ki); 0.0027 µM on ROCK2 (10 μM ATP, read-out: ROCK2 Ki, Avg); 0.0027 µM at ROCK2 (average Ki, read-out: ROCK2 Ki); 0.12 µM at Akt3 human enzyme (30 μM ATP, Ki=IC50/(1+([ATP Challenge]/EC50 ATP)), read-out: Akt3 Ki, Avg); 0.12 µM at Akt3 human enzyme (average Ki, read-out: Akt3 Ki). The Ki on p70S6K human enzyme (30 μM ATP, Ki=IC50/(1+([ATP Challenge]/EC50 ATP)), read-out: p70S6K Ki, Avg) came out at 0.208 µM; at p70S6K human enzyme (average Ki, read-out: p70S6K Ki), 0.208 µM. The “ERK2 Percent inhibition, 1 μM” value at ERK2 is on record as 56%. Further, the “ERK2 Percent inhibition, 10 μM” value at ERK2 turned out to be 12%. The “GCK Percent inhibition, 1 μM” value on GCK is on record as 75%. For the same compound, the “Percent of PDGF Induced Proliferation at 1 μM Avg” value in [2] (1 μM test compound) is recorded as 75.0%. For the same compound, the “Percent of PDGF Induced Proliferation at 10 μM Avg” value in data set [2] (10 μM test compound) turned out to be 25.5%.

For orientation: Ki means the dissociation constant of the complex between target and ligand, obtained from inhibition or displacement.
